Molecular target: T1, NOX2 (Homo sapiens, UniProt P04839)
T1 construct: Used for the NOX2 activity assay was human leukemia 60 cells (HL-60), which are widely, universally used to assess NOX2 activity; endogenous in cells
T1 sequence (P04839 2-570 limits assumed): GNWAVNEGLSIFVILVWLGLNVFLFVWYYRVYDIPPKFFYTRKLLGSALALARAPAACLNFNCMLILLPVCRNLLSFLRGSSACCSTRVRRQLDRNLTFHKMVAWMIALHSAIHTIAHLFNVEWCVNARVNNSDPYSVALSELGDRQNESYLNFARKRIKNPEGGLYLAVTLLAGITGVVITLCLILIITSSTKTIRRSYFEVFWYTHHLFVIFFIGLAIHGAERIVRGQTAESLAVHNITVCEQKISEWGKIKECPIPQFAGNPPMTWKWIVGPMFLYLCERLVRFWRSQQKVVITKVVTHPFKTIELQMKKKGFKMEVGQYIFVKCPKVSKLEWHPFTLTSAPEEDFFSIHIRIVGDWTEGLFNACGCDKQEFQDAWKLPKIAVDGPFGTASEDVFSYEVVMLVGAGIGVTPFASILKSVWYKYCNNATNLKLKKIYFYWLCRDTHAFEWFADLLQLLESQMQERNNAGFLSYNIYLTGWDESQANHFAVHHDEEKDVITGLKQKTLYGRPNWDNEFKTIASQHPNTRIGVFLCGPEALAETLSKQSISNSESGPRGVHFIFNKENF
T1 sequence (P13498 2-195 partner limits assumed): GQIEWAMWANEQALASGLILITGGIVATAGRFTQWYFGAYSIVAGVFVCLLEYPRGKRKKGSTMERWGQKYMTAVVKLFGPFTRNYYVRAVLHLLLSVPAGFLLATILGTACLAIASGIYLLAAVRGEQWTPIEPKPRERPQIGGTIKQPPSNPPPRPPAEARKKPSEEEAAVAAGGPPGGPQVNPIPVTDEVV
Experiment: NOX2 activity assay: PMA-induced ROS in ATRA-differentiated HL-60 cells (WST-1 or Amplex Red/HRP probe)
Assay type: cell-based
Details: for NOX2 inhibitory ability, verbal rating: WST-1, comment on Table 1; for IC50: WST-1 probe, differentiated HL-60, 200 ng/mL PMA, read-out: Inhibitory ability (NOX2); for concentration dependence of NOX2 inhibition: FIG. 1
Protocol: NOX activity was evaluated by measuring the reactive oxygen species (ROS) produced by NOX. The probes that were used to measure ROS were water soluble tetrazolium-1 (WST-1, superoxide-specific colorimetric probe) and Amplex Red/horseradish peroxidase (AR/HRP, hydrogen peroxide-specific fluorometric probe), and the concentration of the probes used was […]. For WST-1, the change in the absorbance at 450 nm was measured, and, for AR, the change in fluorescence signals was measured at 560 nm and 585 nm, respectively for excitation wavelength (Ex) and emission wavelength (Em). The optical signal was measured using the SpectraMax M3 microplate reader from Molecular Devices at 37° C. for 60 minutes.
Used for the NOX2 activity assay was human leukemia 60 cells (HL-60), which are widely, universally used to assess NOX2 activity. 1×10^5 cells/mL of HL-60 were treated with […] all-trans-retinoic acid (ATRA) for 4 days to induce differentiation. Differentiated HL-60 (diff. HL-60) was centrifuged at 200 g for 5 minutes and washed twice with HBSS. Differentiation was induced to reach 3×10^4 cells/well on a 96-well plate (diff). HL-60 was seeded. The test material was treated to cells and left in a 37° C. incubator for 60 minutes. As a control group, the same concentration of DMSO, which is the vehicle of the test material, was used. 200 ng/mL phorbol 12-myristate 13-acetate (PMA) was used as the NOX2 activator, and the production amount of ROS induced by PMA was measured for 60 minutes. […] diphenyleneiodonium (DPI), which is well known to inhibit NOX, was used as a positive control group to evaluate whether the NOX2 activity tester properly operates.

SMILES	NOX2 inhibitory ability, verbal rating	IC50 [µM]	concentration dependence of NOX2 inhibition
COc1ccc2c(c1)C1CC(C)(O2)N(c2cccc(C(=O)N3CCc4ccccc4C3)c2)C(=O)N1 (stereo not drawn) [Compound 25e, 8-Methoxy-2-methyl-3-(3-(1,2,3,4-tetrahydroisoquinoline-2-carbonyl)phenyl)-5,6-dihydro-2H-2,6-methanobenzo[g][1,3,5]oxadiazocin-4(3H)-one]	excellent inhibitory ability		
CC12CC(NC(=O)N1c1cccc(C(=O)N3CCc4ccccc4C3)c1)c1cccc(Br)c1O2 (stereo not drawn) [Compound 25f, 10-Bromo-2-methyl-3-(3-(1,2,3,4-tetrahydroisoquinoline-2-carbonyl)phenyl)-5,6-dihydro-2H-2,6-methanobenzo[g][1,3,5]oxadiazocin-4(3H)-one]		> 10	
COc1cccc2c1OC1(C)CC2NC(=O)N1c1cccc(C(=O)N2CCc3ccccc3C2)c1 (stereo not drawn) [Compound 25g, 10-Methoxy-2-methyl-3-(3-(1,2,3,4-tetrahydroisoquinoline-2-carbonyl)phenyl)-5,6-dihydro-2H-2,6-methanobenzo[g][1,3,5]oxadiazocin-4(3H)-one]		> 10	
CC12CC(NC(=O)N1c1cccc(C(=O)N3CCc4ccccc4C3)c1)c1ccc(Br)cc1O2 (stereo not drawn) [Compound 25h, 9-Bromo-2-methyl-3-(3-(1,2,3,4-tetrahydroisoquinoline-2-carbonyl)phenyl)-5,6-dihydro-2H-2,6-methanobenzo[g][1,3,5]oxadiazocin-4(3H)-one]		1 to 10	
CC12CC(NC(=O)N1c1cccc(C(=O)N3CCc4ccccc4C3)c1)c1ccc(C(F)(F)F)cc1O2 (stereo not drawn) [Compound 25i, 2-Methyl-3-(3-(1,2,3,4-tetrahydroisoquinoline-2-carbonyl)phenyl)-9-(trifluoromethyl)-5,6-dihydro-2H-2,6-methanobenzo[g][1,3,5]oxadiazocin-4(3H)-one]		1 to 10	
CC12CC(NC(=O)N1c1cccc(C(=O)N3CCc4ccccc4C3)c1)c1ccc(Cl)cc1O2 (stereo not drawn) [Compound 25j, 9-Chloro-2-methyl-3-(3-(1,2,3,4-tetrahydroisoquinoline-2-carbonyl)phenyl)-5,6-dihydro-2H-2,6-methanobenzo[g][1,3,5]oxadiazocin-4(3H)-one]		1 to 10	
CC12CC(NC(=O)N1c1cccc(C(=O)N3CCc4ccccc4C3)c1)c1ccc(F)cc1O2 (stereo not drawn) [Compound 25k, 9-Fluoro-2-methyl-3-(3-(1,2,3,4-tetrahydroisoquinoline-2-carbonyl)phenyl)-5,6-dihydro-2H-2,6-methanobenzo[g][1,3,5]oxadiazocin-4(3H)-one]		> 10	
COc1ccc2c(c1)OC1(C)CC2NC(=O)N1c1cccc(C(=O)N2CCc3ccccc3C2)c1 (stereo not drawn) [Compound 25l, 9-Methoxy-2-methyl-3-(3-(1,2,3,4-tetrahydroisoquinoline-2-carbonyl)phenyl)-5,6-dihydro-2H-2,6-methanobenzo[g][1,3,5]oxadiazocin-4(3H)-one]		> 10	
CC12CC(NC(=O)N1c1cccc(C(=O)N3CCc4ccccc4C3)c1)c1c(F)cccc1O2 (stereo not drawn) [Compound 25m, 7-Fluoro-2-methyl-3-(3-(1,2,3,4-tetrahydroisoquinoline-2-carbonyl)phenyl)-5,6-dihydro-2H-2,6-methanobenzo[g][1,3,5]oxadiazocin-4(3H)-one]		1 to 10	
CC12CC(NC(=O)N1c1cccc(C(=O)N3CCc4ccccc4C3)c1)c1cc(-c3ccsc3)ccc1O2 (stereo not drawn) [Compound 26a, 2-Methyl-3-(3-(1,2,3,4-tetrahydroisoquinoline-2-carbonyl)phenyl)-8-(thiophen-3-yl)-5,6-dihydro-2H-2,6-methanobenzo[g][1,3,5]oxadiazocin-4(3H)-one]	excellent inhibitory ability	< 1	inhibited NOX2 activity in a concentration-dependent manner
CC12CC(NC(=O)N1c1cccc(C(=O)N3CCc4ccccc4C3)c1)c1cc(-c3ccoc3)ccc1O2 (stereo not drawn) [Compound 26b, 8-(Furan-3-yl)-2-methyl-3-(3-(1,2,3,4-tetrahydroisoquinoline-2-carbonyl)phenyl)-5,6-dihydro-2H-2,6-methanobenzo[g][1,3,5]oxadiazocin-4(3H)-one]	excellent inhibitory ability	< 1	inhibited NOX2 activity in a concentration-dependent manner
CC12CC(NC(=O)N1c1cccc(C(=O)N3CCc4ccccc4C3)c1)c1cc(-c3cccs3)ccc1O2 (stereo not drawn) [Compound 26c, 2-Methyl-3-(3-(1,2,3,4-tetrahydroisoquinoline-2-carbonyl)phenyl)-8-(thiophen-2-yl)-5,6-dihydro-2H-2,6-methanobenzo[g][1,3,5]oxadiazocin-4(3H)-one]	excellent inhibitory ability	> 10	
CC12CC(NC(=O)N1c1cccc(C(=O)N3CCc4ccccc4C3)c1)c1cc(-c3ccco3)ccc1O2 (stereo not drawn) [Compound 26d, 8-(furan-2-yl)-2-methyl-3-(3-(1,2,3,4-tetrahydroisoquinoline-2-carbonyl)phenyl)-5,6-dihydro-2H-2,6-methanobenzo[g][1,3,5]oxadiazocin-4(3H)-one]	excellent inhibitory ability	> 10	
COc1ccc(-c2ccc3c(c2)C2CC(C)(O3)N(c3cccc(C(=O)N4CCc5ccccc5C4)c3)C(=O)N2)cc1 (stereo not drawn) [Compound 26e, 8-(4-Methoxyphenyl)-2-methyl-3-(3-(1,2,3,4-tetrahydroisoquinoline-2-carbonyl)phenyl)-5,6-dihydro-2H-2,6-methanobenzo[g][1,3,5]oxadiazocin-4(3H)-one]	excellent inhibitory ability	> 10	
CC12CC(NC(=O)N1c1cccc(C(=O)N3CCc4ccccc4C3)c1)c1cc(N3CCOCC3)ccc1O2 (stereo not drawn) [Compound 26f, 2-Methyl-8-morpholino-3-(3-(1,2,3,4-tetrahydroisoquinoline-2-carbonyl)phenyl)-5,6-dihydro-2H-2,6-methanobenzo[g][1,3,5]oxadiazocin-4(3H)-one]		1 to 10	
CC12CC(NC(=O)N1c1cccc(C(=O)N3CCc4ccccc4C3)c1)c1cccc(-c3ccsc3)c1O2 (stereo not drawn) [Compound 26g, 2-Methyl-3-(3-(1,2,3,4-tetrahydroisoquinoline-2-carbonyl)phenyl)-10-(thiophen-3-yl)-5,6-dihydro-2H-2,6-methanobenzo[g][1,3,5]oxadiazocin-4(3H)-one]		1 to 10	
CC12CC(NC(=O)N1c1cccc(C(=O)N3CCc4ccccc4C3)c1)c1cccc(-c3ccoc3)c1O2 (stereo not drawn) [Compound 26h, 10-(Furan-3-yl)-2-methyl-3-(3-(1,2,3,4-tetrahydroisoquinoline-2-carbonyl)phenyl)-5,6-dihydro-2H-2,6-methanobenzo[g][1,3,5]oxadiazocin-4(3H)-one]		1 to 10	
CC12CC(NC(=O)N1c1cccc(C(=O)N3CCc4ccccc4C3)c1)c1ccc(-c3ccsc3)cc1O2 (stereo not drawn) [Compound 26i, 2-Methyl-3-(3-(1,2,3,4-tetrahydroisoquinoline-2-carbonyl)phenyl)-9-(thiophen-3-yl)-5,6-dihydro-2H-2,6-methanobenzo[g][1,3,5]oxadiazocin-4(3H)-one]		1 to 10	
CC12CC(NC(=O)N1c1cccc(C(=O)N3CCc4ccccc4C3)c1)c1ccc(-c3ccoc3)cc1O2 (stereo not drawn) [Compound 26j, 9-(Furan-3-yl)-2-methyl-3-(3-(1,2,3,4-tetrahydroisoquinoline-2-carbonyl)phenyl)-5,6-dihydro-2H-2,6-methanobenzo[g][1,3,5]oxadiazocin-4(3H)-one]		1 to 10	
CC12CC(NC(=O)N1c1cccc(C(=O)N3CCc4ccc(F)cc4C3)c1)c1cc(Br)ccc1O2 (stereo not drawn) [Compound 27a, 8-Bromo-3-(3-(7-fluoro-1,2,3,4-tetrahydroisoquinoline-2-carbonyl)phenyl)-2-methyl-5,6-dihydro-2H-2,6-methanobenzo[g][1,3,5]oxadiazocin-4(3H)-one]		1 to 10	

Source: US20250382303A1, “NOVEL COMPOUND AS NADPH OXIDASE 2 INHIBITOR AND PHARMACEUTICAL COMPOSITION CONTAINING SAME” (DONGGUK UNIVERSITY INDUSTRY-ACADEMIC COOPERATION FOUNDATION, priority 2022, published 2025)
